Test results published in ChEMBL document CHEMBL3507680, “University of Dundee, Gates Library screen for HepG2 cell viability”.

Test: Human HepG2 cell viability assay in 384 well format
Assay type: toxicity, cell-based
Set-up: dose 125 nL, time 70.5 hour; concentration not given beside the values
Conditions: HepG2 cells, read-out: Inhibition

Row | Structure (SMILES) | cytotoxicity at 70.5 h [%]
1 | c1ccc(COC[C@H]2CC[C@H]3[C@H](CCN3Cc3ccco3)O2)nc1 | -6.26
2 | CN1Cc2c(C(=O)NCC3CCCO3)ncn2-c2ccccc2S1(=O)=O (configuration not stated) | -0.787
3 | CCS(=O)(=O)N1CC[C@H]2[C@H]1CC(=O)N2Cc1csc(C)n1 | -1.34
4 | COc1nn(C)c2c1CCCN(C(=O)c1ccsc1)C2 | -108
5 | COCCC(=O)N1CCC2(CCCN2Cc2ccccc2)C1 (configuration not stated) | -52.9
6 | COCCO[C@H]1CCN(C(=O)NC2CC2)[C@H]1Cc1cnn(C)c1 | -123
7 | CCC1=N[C@@]2(CC[C@@H]3CN(C(=O)Nc4ccccc4)C[C@@H]32)C(=O)N1CC | -85.5
8 | CCN1C(=O)[C@]2(CC[C@@H]3CN(C(=O)Nc4ccc(F)cc4)C[C@@H]32)N=C1C | -77.4
9 | CC1=N[C@@]2(CC[C@@H]3CN(C(=O)Nc4ccc(F)cc4)C[C@@H]32)C(=O)N1C | -101
10 | CN1CCN(C(=O)c2cc(-c3cnc(N4CCCC4)nc3)cn2C)CC1 | -21.9
11 | Cn1cc(-c2cnc(N3CCOCC3)nc2)cc1C(=O)N1CCCC1 | -27.5
12 | c1cncc(CN2CCc3c(CNc4nccs4)n[nH]c3C2)c1 | -25
13 | C[C@@H]1C[C@@H]2CCN(C(=O)c3ccncn3)C[C@H]2O1 | -7.65
14 | COc1cc2cc(C(=O)NCCC(=O)O)n(C)c2c(OC)c1OC | -4.76
15 | Cn1nc(C(=O)NCc2ccc(Cl)cc2)c2c1CCS(=O)(=O)C2 | 2.61
16 | COc1ccccc1C(=O)Nc1c(F)c(C(=O)NC2CCCC2)nn1C | -7.93
17 | CC(C)NC(=O)c1nn(C)c(NC(=O)Cc2ccccc2)c1F | -11.4
18 | COc1ccccc1C(=O)Nc1c(F)c(C(=O)NCCC(C)C)nn1C | 25.3
19 | Cc1nc(N2CCCC2)ncc1-c1cc(O)nc(N2CCN(C)CC2)n1 | -2.96
20 | CCC1=NC(SCC(=O)c2ccc(C)cc2)c2cc(CC)sc2N1 (configuration not stated) | -15.9
21 | CCC1=NC(SCC(=O)c2ccc(Cl)cc2)c2cc(CC)sc2N1 (configuration not stated) | -11
22 | O=S(=O)(Nc1ccc(Oc2ccc3c(c2)OCO3)cc1)N1CCCCC1 | 23
23 | Cn1ccnc1SCC(=O)NCc1ccc2c(c1)CCC(=O)N2 | 2.79

Row | Structure (SMILES) | cytotoxicity at 70.5 h [%]
24 | COc1ccc(C2=Nn3c(CCN)nnc3-c3ccccc3C2)cc1 | 8.3
25 | COc1ccc(C2=Nn3c(CCCN)nnc3-c3ccccc3C2)cc1 | 4.99
26 | O=C(NCc1ccco1)c1[nH]nc2c1CS(=O)(=O)CC2 | 22.5
27 | CCn1ncc(CNc2[nH]cnc3nncc2-3)c1C | -13.8
28 | Cc1nc2[nH]cnc(Nc3cnn(C)c3)c-2n1 | 0.28
29 | Cc1nc2[nH]cnc(NCCCN3CCOCC3)c-2n1 | -6.34
30 | CC(Nc1ncnc2c1NC(=O)CN2)c1ccccn1 (configuration not stated) | -13.6
31 | O=C1CNc2ncnc(Nc3cnn(Cc4ccccc4)c3)c2N1 | 27
32 | O=C1CNc2ncnc(Nc3cnn(Cc4ccc(F)cc4)c3)c2N1 | -12.2
33 | CC(Nc1ncnc2c1NC(=O)CN2)c1ccc2c(c1)OCO2 (configuration not stated) | -18.5
34 | O=C1CNc2ncnc(Nc3cccc(Cn4cccn4)c3)c2N1 | -6.61
35 | COc1ccccc1CNc1ncnc2c1NC(=O)CN2 | -6.12
36 | CC(C)c1noc(C2CCN(C(=O)C3CCCO3)CC2)n1 (configuration not stated) | -11.9
37 | O=C1c2cnc(N3CCOCC3)nc2CN1Cc1cccc(F)c1 | -6.18
38 | CNc1ncc2c(n1)CN(C1CCCC1)C2=O | -9.4
39 | CN(C)c1ncc2c(n1)CN(C1CCSCC1)C2=O | 22.1
40 | O=C1c2cnc(N3CCCCC3)nc2CN1c1ccc2c(c1)OCO2 | 16.4
41 | CCCc1noc(C2CCCCN2C(=O)CCc2cnn(C)c2)n1 (configuration not stated) | -0.695
42 | c1ccc2c(N3CCCCC3)cnnc2c1 | -6.45
43 | c1ccc2c(N3CCOCC3)cnnc2c1 | -8.59
44 | CNc1ncc2c(n1)CN(CCc1ccc(C)cc1)C2=O | -3.63
45 | COc1ccc(N2Cc3nc(N)ncc3C2=O)cc1Cl | -3.37
46 | COc1ccc(CCNC(=O)Cn2ncc3c2c(C)nn3C)cc1 | -12.7

Row | Structure (SMILES) | cytotoxicity at 70.5 h [%]
47 | CCc1noc(C2CCCCN2C(=O)c2cc(C)on2)n1 (configuration not stated) | -6.42
48 | CCn1nc(C)c2c1cnn2CC(=O)Nc1ccc(OC)cc1C | -1.46
49 | CCC(C)NC(=O)Cn1ncc2c1c(C)nn2CC (configuration not stated) | 22.8
50 | Cc1nn(C)c2cn(CC(=O)N3CCN(c4ccccn4)CC3)nc12 | 5.73
51 | COc1ccccc1CNC(=O)C(C)n1cc2c(n1)c(C)nn2C (configuration not stated) | -6.09
52 | CCN(CC)c1nc(Nc2cccc(C(=O)O)c2)nc2ccccc12 | -11.2
53 | COc1ccc(CNc2cc3[nH]c(O)nc3cc2C)cc1 | -5.05
54 | Cc1nc(N2CCC(C)CC2)ncc1-c1cc(O)nc(N2CCCC2)n1 | 1.46
55 | CC(C)CN1Cc2nc(N)ncc2C1=O | -10.7
56 | COc1ccc(N2Cc3nc(N4CCCC4)ncc3C2=O)cc1Cl | 1.18
57 | Cc1ccccc1CNC(=O)Cn1ncc2c1c(C)nn2C | -9.91
58 | Clc1ccc2nncc(N3CCCCC3)c2c1 | -10.7
59 | CCN1CCCC(O)(CNCc2ccc3c(c2)OCO3)C1 (configuration not stated) | -10.3
60 | CCN1CCN(C(=O)Cn2ncc3c2c(C)nn3C(C)C)CC1 | -4.28
61 | Cc1nn(C)c2cn(CC(=O)N3CCc4ccccc4C3)nc12 | 1.13
62 | COCCNC(=O)Cn1cc2c(n1)c(C)nn2C(C)C | -5.84
63 | CCN1CCCC(O)(CN(C)Cc2c(C)nn(C)c2C)C1 (configuration not stated) | 2.33
64 | N#Cc1c(N2CCOCC2)nsc1-c1cccnc1 | -4.2
65 | CCn1cc(N2Cc3nc(N4CCC(C)CC4)ncc3C2=O)cn1 | -8.76
66 | CCN1CCN(c2nsc(-c3cccnc3)c2C#N)CC1 | -5.08
67 | COc1ccc2nnc(C(=O)NC3CCCC3)nc2c1 | -4.15
68 | COC(=O)C1CCN(C(=O)c2nnc3ccc(Cl)cc3n2)CC1 | -7.04
69 | CC1CCN(c2ncc3c(n2)CN(C2CCS(=O)(=O)C2)C3=O)CC1 (configuration not stated) | 29

Row | Structure (SMILES) | cytotoxicity at 70.5 h [%]
70 | Cc1cccc(N2Cc3nc(N4CCC(C)CC4)ncc3C2=O)c1 | -5.12
71 | CCN1CCN(C(=O)c2cc(NC(=O)c3ccccc3)n(C)n2)CC1 | -3.8
72 | Cc1nn(C)c(C)c1CNC(=O)c1cc(NC(=O)C2CC2)n(C)n1 | -7.51
73 | Cn1nc(C(=O)NC2CCCCC2)cc1NC(=O)C1CC1 | -5.38
74 | Cn1nc(C(=O)NC2CCCC2)cc1NC(=O)C1CC1 | -8.78
75 | Cn1nc(C(=O)NC2CC2)cc1NC(=O)C1CC1 | -7.34
76 | CCCN1CCN(c2nc(N)nc3c2nc(C)n3C)CC1 | 20.9
77 | CC(=O)c1ccc(Nc2nc(N)nc3c2nc(C)n3C)cc1 | 4.46
78 | Cc1nc2c(Nc3ccc(C#N)cc3)nc(N)nc2n1C | -1.73
79 | Cc1cccc(CN2CCc3ncnc(N4CCCC4)c3CC2)n1 | -2.78
80 | O=C(NC[C@H]1OC[C@@H]2CCN(Cc3ccco3)C[C@@H]21)c1ccnnc1 | -1.68
81 | c1ccc(CN2CCc3ncnc(C4CC4)c3CC2)cc1 | 26.7
82 | CN1CCN(C(=O)c2ncn3c2CN(C)S(=O)(=O)c2ccccc2-3)CC1 | 1.76
83 | CC(C)NC(=O)N1CCCn2cnc(CO)c2C1 | 6.26
84 | CCc1ncnc2c1CCN(Cc1ccc3c(c1)OCO3)CC2 | 4.52
85 | Cc1nc(CN2C(=O)C[C@H]3[C@H]2CCN3CC2CCOC2)cs1 (some centres not stated) | 2.38
86 | CN(C(=O)c1ncn2c1CN(C)S(=O)(=O)c1ccccc1-2)C1CC1 | -3.76
87 | CC(C)C(C)NC(=O)c1ncn2c1CN(C)S(=O)(=O)c1ccccc1-2 (configuration not stated) | -2.58
88 | Cn1cc(CN2CC[C@H]3O[C@H](C(=O)Nc4cnccn4)CC[C@H]32)cn1 | 29.6
89 | Cc1nc(CN2C(=O)C[C@H]3[C@H]2CCN3C2CCOC2)cs1 (some centres not stated) | 28.1
90 | O=C(COC[C@H]1CC[C@H]2[C@H](CCN2c2ccccn2)O1)N1CCCC1 | -111
91 | CCS(=O)(=O)N1CCC2(CN(c3ccsc3)C(=O)CN2C)C1 (configuration not stated) | -124
92 | Cc1cnc(N2CC[C@@H]3OC(COCC(=O)N(C)C)CC[C@@H]32)nc1 (some centres not stated) | -117

Row | Structure (SMILES) | cytotoxicity at 70.5 h [%]
93 | c1cnc(NCc2nnn3c2CN(Cc2ccsc2)CCC3)nc1 | -118
94 | Cc1nc(CN2CCOCC3(CCN(c4ncccn4)CC3)C2)cs1 | -97.5
95 | c1cncc(N2CC[C@@H]3CN(CC4CC4)C[C@@H]3C2)c1 | -26.1
96 | O=C1COC2(CCN(Cc3ccoc3)CC2)CN1 | -30.5
97 | CCOCC1CN(Cc2ccoc2)Cc2nn(C)cc21 (configuration not stated) | -4.9
98 | O=C(C1CCOCC1)N1CCO[C@H]2[C@H](OCc3ccncc3)CC[C@@H]21 | -9.92
99 | CCN1CC[C@@]2(C(=O)Nc3ccccc3)CCN(S(C)(=O)=O)CC[C@@H]12 | -17.9
100 | Cc1cccc(CN2CC[C@H]3O[C@H](C(=O)Nc4cnccn4)CC[C@H]32)n1 | 1.13
101 | Cc1cccc(CN2CCc3ncnc(NC4CCC4)c3CC2)n1 | 5.7
102 | O=c1ccc2c(n1Cc1cccnc1)CCN(Cc1ccoc1)CC2 | 4.28
103 | Cc1nc(CN2CCOCC3(CCN(c4ccccn4)C3)C2)cs1 (configuration not stated) | -40.4
104 | C1CCN(CCO[C@@H]2CC[C@H]3[C@H]2OCCN3CC2CCOCC2)C1 | -120
105 | COCC1c2c(cnn2C)CCN1Cc1ccco1 (configuration not stated) | -0.607
106 | O=C1COC2(CCN(Cc3ccncc3)CC2)CN1 | -11.9
107 | CC(C)N(C)Cc1nnn2c1CN(Cc1cccnc1)CCC2 | -101
108 | c1cncc(CN2CCCn3nnc(CN4CCCC4)c3C2)c1 | -64.2
109 | OCCN1CCC2(CC1)CC(NCc1ccccn1)c1ccccc1O2 (configuration not stated) | -0.919
110 | CC(C)N1CCC2(CC1)CC(NCc1ccccn1)c1ccccc1O2 (configuration not stated) | -0.344
111 | CCN1CCC2(CC1)CC(NCc1cccc(C)n1)c1ccccc1O2 (configuration not stated) | -16.9
112 | CCN1CCC2(CC1)CC(NCc1ccncc1)c1ccccc1O2 (configuration not stated) | -20.8
